From patent publication US8883963B2 (Cadila Healthcare Limited, priority 2007, dated 2014)
Non-standard residues stand in square brackets, D forms with d. Residues, ends and D or L forms follow the SMILES beside them. ξ: configuration not given here. *: point of attachment. X5 = CCc1cc(OC)ccc1-c1ccc(CC(N*)C(=S)NC(CCCc2ccccc2F)C(N)=O)cc1; Leu(5,5,5,5',5',5'-F6) = N[C@@H](CC(C(F)(F)F)C(F)(F)F)C(=O)O; ξBip(2'-Et-4'-OMe) = CCc1cc(OC)ccc1-c1ccc(CC(N)C(=O)O)cc1; ξNva(5-(3,5-Me2-Ph)) = Cc1cc(C)cc(CCCC(N)C(=O)O)c1; ξαMePhe(2-F) = CC(N)(Cc1ccccc1F)C(=O)O; aThr = C[C@H](O)[C@H](N)C(=O)O; Ac5c = NC1(C(=O)O)CCCC1; Aib = CC(C)(N)C(=O)O

Legend:
[1] = test system: RIN5F (Rat Insulinoma) cells; assay: In vitro glucose-dependent insulin secretion (RIN5F cell assay screening protocol); format: cell-based; conditions: 16.7 mM glucose load
Experimental: RIN5F (Rat Insulinoma) cells were cultured in RPMI 1640 medium supplemented with sodium pyruvate (1 mM) HEPES and Glucose (4.5 g/L) in a humidified incubator (5% CO2), at 37° C. After trypsinization, RIN5F cells were seeded at a concentration of 0.2×10^6 cells per well, in 12 well plates.
The buffer was replaced after 40 min. and the cells were incubated (37° C.) with the test peptidomimetics, at different concentration, for 30 min., both in the presence (16.7 mM) and absence (0 mM) of glucose load. The supernatant was collected and the insulin amount was measured by ultra sensitive Rat insulin ELISA kit (Crystal Chem, IL). The protein was estimated in the supernatant using Bicinchoninic Acid kit, according to the manufacturer's protocol (Sigma Aldrich, MO). The total insulin content obtained in Pico-gram (pg) was divided with the total protein (μg) in order to normalize for differences in cell density between wells.

[2] = biological target: T1, human glucagon receptor (Homo sapiens, UniProt P47871); assay: In vitro human glucagon antagonist activity (inhibition of cAMP production) in CHO/human glucagon R cells; format: cell-based; conditions: with saturated concentration of glucagon peptide
T1 construct: The full-length cDNA was cloned in pcDNA3.1 (Invitrogen); expressed in transfected cells
T1 sequence (P47871 26-477): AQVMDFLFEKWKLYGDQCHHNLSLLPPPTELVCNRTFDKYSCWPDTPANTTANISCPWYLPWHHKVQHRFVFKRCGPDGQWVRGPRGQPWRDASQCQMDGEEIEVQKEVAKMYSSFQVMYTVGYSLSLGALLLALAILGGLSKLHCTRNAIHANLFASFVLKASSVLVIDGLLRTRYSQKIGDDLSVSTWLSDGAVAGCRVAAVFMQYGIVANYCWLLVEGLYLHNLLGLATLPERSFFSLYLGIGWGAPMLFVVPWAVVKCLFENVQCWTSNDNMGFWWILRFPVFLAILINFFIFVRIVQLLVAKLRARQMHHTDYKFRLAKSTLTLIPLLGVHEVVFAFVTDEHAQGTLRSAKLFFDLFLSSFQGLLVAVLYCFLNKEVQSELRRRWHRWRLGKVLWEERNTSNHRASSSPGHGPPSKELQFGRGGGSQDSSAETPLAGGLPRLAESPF
Experimental: The CHO-K1 cells (CRL 9618) were obtained from American Type Culture Collection (Rockville, Md.). CHO cells were grown in Ham's F12 medium containing L-Glutamine (2 mM), HEPES (25 mM), NaHCO3 (1.1 g/L) and supplemented with newborn Calf Serum (NBCS; 10%), Penicillin (50 U/ml (v/v)) and Streptomycin (50 ug/ml (v/v)). Cells were split every 3 days 1:8.
The full-length cDNA was cloned in pcDNA3.1 (Invitrogen). […] Clones expressing the receptor were generated by G418 (800 μg/ml active, Sigma) selection. The stable clones were thereafter maintained at 500 ug/ml (G418). The selected clone was used between passages 9-25 for cAMP assays.
The cells were trypsinized using 2 ml of TPVG (0.25% trypsin, 0.53 mM EDTA, 1.38-mM glucose). The trypsin was inactivated using Ham's F12 medium containing 10% NBCS and the cells were suspended in 2 ml of complete medium. […] The medium was aspirated off from the 12 well plate and the cells were washed once using Ham's F12 (plain). The cells were incubated at 37° C. with 500 ul of Ham's F12+1% BSA+0.125 mM RO-20 for 30 min. […] After the incubation, the medium was removed and cells were washed once with plain Ham's F12. Subsequently, the cells were lysed by adding 500 ul of ice cold 0.1 N HCl to each well and shaking for 30 minutes at 200 rpm. The cells were then scrapped, the lysate was collected in micro centrifuge tubes and centrifuged at 12000 rpm for 10 min to remove the debris. 300 ul of supernatant from each micro-centrifuge tube was then removed into a glass tube and dried under N2 for 30 min, for cAMP estimation. The total cAMP was estimated from the sample according to the manufacturer's protocol using Cyclic AMP immunoassay kit (R&D systems, Minneapolis. MN). The remaining supernatant is used to determine the protein concentration using micro BCA (Sigma). Data is calculated as percent of control (Vehicle: water) and expressed as Mean+SD.

Row | SMILES | Insulin secretion ([1]; 0.1 nM test compd.) [pg/µg/h] | Insulin secretion ([1]; 1 nM test compd.) [pg/µg/h] | Insulin secretion ([1]; 10 nM test compd.) [pg/µg/h] | Human Glucagon receptor antagonistic activity shown as inhibition of cAMP production of Glucagon peptide ([2]; 1 nM test compound) [pmol/ml/μg prt] | Human Glucagon receptor antagonistic activity shown as inhibition of cAMP production of Glucagon peptide ([2]; 10 nM test compound) [pmol/ml/μg prt] | Human Glucagon receptor antagonistic activity shown as inhibition of cAMP production of Glucagon peptide ([2]; 100 nM test compound) [pmol/ml/μg prt] | Human Glucagon receptor antagonistic activity shown as inhibition of cAMP production of Glucagon peptide ([2]; 1 μM test compound) [pmol/ml/μg prt] | Human Glucagon receptor antagonistic activity shown as inhibition of cAMP production of Glucagon peptide ([2]; 10 μM test compound) [pmol/ml/μg prt]
1 | CCc1cc(OC)ccc1-c1ccc(CC(NC(=O)[C@H](CC(=O)O)NC(=O)[C@H](CO)NC(=O)[C@@H](NC(=O)C(C)(Cc2ccccc2F)NC(=O)[C@@H](NC(=O)CNC(=O)[C@H](CC(C(F)(F)F)C(F)(F)F)NC(=O)C(C)(C)NC(=O)[C@@H](N)Cc2c[nH]cn2)[C@@H](C)O)[C@H](C)O)C(=O)NC(CCCc2ccccc2)C(N)=O)cc1 (single isomer, unassigned) [compound 225] | 12.4 ± 0.22 | 15.2 ± 0.32 | 29.6 ± 0.50 | 5 ± 0.01 | 2 ± 0.17 | 0 | 0 | 0
2 | CCc1cc(OC)ccc1-c1ccc(CC(NC(=O)[C@H](CC(=O)O)NC(=O)[C@H](CO)NC(=O)[C@@H](NC(=O)C(C)(Cc2ccccc2F)NC(=O)[C@@H](NC(=O)CNC(=O)[C@H](CC(C(F)(F)F)C(F)(F)F)NC(=O)C(C)(C)NC(=O)[C@@H](N)Cc2c[nH]cn2)[C@@H](C)O)[C@@H](C)O)C(=O)NC(CCCc2ccc(Cl)cc2C)C(N)=O)cc1 (single isomer, unassigned) [compound 237] | 12.0 ± 0.14 | 14.3 ± 0.12 | 27.8 ± 0.32 | 21 ± 0.11 | 19 ± 0.02 | 18 ± 0.07 | 18 ± 0.03 | 16 ± 0.02
3 | CCc1cc(OC)ccc1-c1ccc(CC(NC(=O)[C@H](CC(=O)O)NC(=O)[C@H](CO)NC(=O)[C@@H](NC(=O)C(C)(Cc2ccccc2F)NC(=O)[C@@H](NC(=O)CNC(=O)[C@H](CCC(N)=O)NC(=O)C(C)(C)NC(=O)[C@@H](N)Cc2c[nH]cn2)[C@@H](C)O)[C@@H](C)O)C(=O)NC(CCCc2ccc(Cl)cc2C)C(N)=O)cc1 (single isomer, unassigned) [compound 40] | 12.6 ± 0.20 | 15.9 ± 0.31 | 28.4 ± 0.11 | 18 ± 0.07 | 16 ± 0.01 | 12 ± 0.03 | 8 ± 0.02 | 6 ± 0.08
4 | CCc1cc(OC)ccc1-c1ccc(CC(CNC(CCCc2ccccc2F)C(N)=O)NC(=O)[C@H](CC(=O)O)NC(=O)[C@H](CO)NC(=O)[C@@H](NC(=O)C(C)(Cc2ccccc2F)NC(=O)[C@@H](NC(=O)CNC(=O)C(CCC#N)NC(=O)C(C)(C)NC(=O)[C@@H](N)Cc2c[nH]cn2)[C@H](C)O)[C@H](C)O)cc1 (single isomer, unassigned) [compound 192] | 16.6 ± 0.41 | 22.9 ± 0.32 | 36.7 ± 0.11 | 4 ± 0.09 | 2 ± 0.12 | 0 | 0 | 0
5 | CCc1cc(OC)ccc1-c1ccc(CC(NC(=O)[C@H](CC(=O)O)NC(=O)[C@H](CO)NC(=O)[C@@H](NC(=O)C(C)(Cc2ccccc2F)NC(=O)[C@@H](NC(=O)CNC(=O)[C@H](CC(C(F)(F)F)C(F)(F)F)NC(=O)C(C)(C)NC(=O)[C@@H](N)Cc2c[nH]cn2)[C@H](C)O)[C@H](C)O)C(=S)NC(CCCc2ccccc2F)C(N)=O)cc1 (stereo partly drawn) [compound 218] (H-H[Aib][Leu(5,5,5,5',5',5'-F6)]G[aThr][ξαMePhe(2-F)][aThr]SD-X5) | 12.3 ± 0.33 | 14.8 ± 0.16 | 28.1 ± 0.22 | 9 ± 0.11 | 6 ± 0.12 | 5 ± 0.14 | 3 ± 0.22 | 0
6 | CCc1cc(OC)ccc1-c1ccc(CC(NC(=O)[C@H](CC(=O)O)NC(=O)[C@H](CO)NC(=O)[C@@H](NC(=O)[C@H](Cc2ccccc2)NC(=O)[C@@H](NC(=O)CNC(=O)[C@H](CCC(N)=O)NC(=O)C2(NC(=O)[C@@H](N)Cc3c[nH]cn3)CCCC2)[C@@H](C)O)[C@@H](C)O)C(=O)NC(CCCc2cc(C)cc(C)c2)C(N)=O)cc1 (stereo partly drawn) [compound 26] (H-H[Ac5c]QGTFTSD[ξBip(2'-Et-4'-OMe)][ξNva(5-(3,5-Me2-Ph))]-NH2) | 16.6 ± 0.41 | 22.9 ± 0.32 | 36.6 ± 0.19 | 15 ± 0.11 | 12 ± 0.13 | 8 ± 0.09 | 4 ± 0.01 | 2 ± 0.08
